Experimental data: patent US20240008491A1, “PESTICIDE COMPOSITION FOR C[…] CROWN ROT AND APPLICATION” (priority 2022, published 2024)
Converted amounts (≈) assume the structure as drawn.

Test system: wheat crown rot
Test: indoor toxicity test (growth rate method)
Type: cell-based
Settings: toxicity to wheat crown rot
Experimental: The method of combining indoor toxicity test and field experiment is adopted.
First of all, co-toxicity coefficients of the complex pesticide of different proportions to wheat crown rot are obtained through indoor toxicity test (growth rate method); and then, the control effect is determined through field efficacy test, and the formula proportion and optimal application amount of the complex pesticide are determined.

SMILES | EC50
C=CCOC(Cn1ccnc1)c1ccc(Cl)cc1Cl (centres unmarked) [Imazalil (B), Imazalil] | 0.175 µg/mL (≈ 0.589 µM)
OC(Cc1ccccc1Cl)(Cn1nc[nH]c1=S)C1(Cl)CC1 (centres unmarked) [Prothioconazole (A), Prothioconazole] | 1.37 µg/mL (≈ 3.98 µM)
